Measurements reported in the supplement of paper PMC7661543.
± gives the standard deviation of the averaged measurements.

Legend:
Experiment in all cases: relative cell number vs DMSO control (72 h) (% of DMSO); higher = less growth inhibition (more cells)
Details in all cases: sgRNA knockout: sgNT
BT-20 = tested on: BT-20
Protocol: (§1)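 QMAP-Seq: a pool of 5 breast cancer cell lines (ZR-75-1, SKBR3, HCC-38, MDA-MB-231, BT-20), each carrying 12 doxycycline-inducible Cas9 sgRNA perturbations (11 knockouts plus non-targeting sgNT), was treated with compounds for 72 h at four 10-fold doses (10 nM-10 uM or 1 nM-1 uM range). Barcodes were amplified and sequenced, and cell number was interpolated from 293T spike-in standard curves. The result is expressed as % of the median of DMSO wells. Two biological replicates.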

HCC-38 = tested on: HCC-38
Protocol: as §1

MDA-MB-231 = tested on: MDA-MB-231
Protocol: as §1

SKBR3 = tested on: SKBR3
Protocol: as §1

ZR-75-1 = tested on: ZR-75-1
Protocol: as §1

| SMILES | relative cell number (BT-20; 10 nM) | relative cell number (BT-20; 100 nM) | relative cell number (BT-20; 1000 nM) | relative cell number (BT-20; 10000 nM) | relative cell number (HCC-38; 10 nM) | relative cell number (HCC-38; 100 nM) | relative cell number (HCC-38; 1000 nM) | relative cell number (HCC-38; 10000 nM) | relative cell number (MDA-MB-231; 10 nM) | relative cell number (MDA-MB-231; 100 nM) | relative cell number (MDA-MB-231; 1000 nM) | relative cell number (MDA-MB-231; 10000 nM) | relative cell number (SKBR3; 10 nM) | relative cell number (SKBR3; 100 nM) | relative cell number (SKBR3; 1000 nM) | relative cell number (SKBR3; 10000 nM) | relative cell number (ZR-75-1; 10 nM) | relative cell number (ZR-75-1; 100 nM) | relative cell number (ZR-75-1; 1000 nM) | relative cell number (ZR-75-1; 10000 nM) |
| --- | --- | --- | --- | --- | --- | --- | --- | --- | --- | --- | --- | --- | --- | --- | --- | --- | --- | --- | --- | --- |
| Cc1cc(N2CCOCC2)cc2[nH]c(-c3c(NC[C@@H](O)c4cccc(Cl)c4)cc[nH]c3=O)nc12 | 70.9 ± 10 | 88.3 ± 11 | 94 ± 14 | 67.4 ± 17 | 94.97 ± 0.84 | 89.4 ± 24 | 93.6 ± 7.3 | 30.7 ± 3.4 | 85.2 ± 7.6 | 76.6 ± 42 | 77.5 ± 2.4 | 15 ± 2.3 | 107 ± 3.5 | 73 ± 16 | 60 ± 15 | 60.3 ± 12 | 78.8 ± 51 | 53.3 ± 10 | 84.2 ± 8.8 | 13.7 ± 10 |
| Cc1ccc(C(=O)N(CCCN)[C@@H](c2oc3cc(Cl)ccc3c(=O)c2Cc2ccccc2)C(C)C)cc1 | 29.6 ± 8.5 | 27.7 ± 4.7 | 33.7 ± 11 | 5.17 ± 2.2 | 24 ± 0.85 | 27.8 ± 8.2 | 28.9 ± 4.7 | 5.58 ± 0.82 | 23 ± 9 | 16.8 ± 5.6 | 17.2 ± 11 | 4.71 ± 1.3 | 15.6 ± 15 | 11.3 ± 1.2 | 15.3 ± 5.2 | 5.26 ± 4.4 | 26.5 ± 2.3 | 21.8 ± 0.36 | 27.9 ± 5.1 | 3 ± 1.2 |
| Cc1ccc(S(=O)(=O)OCC(=O)Nc2ccc(C(=O)O)c(O)c2)cc1 | 101 ± 26 | 115 ± 40 | 108 ± 17 | 95.6 ± 33 | 119 ± 7.6 | 102 ± 1.3 | 91.8 ± 5.4 | 89.6 ± 9.3 | 128 ± 26 | 61.9 ± 5.4 | 117 ± 20 | 86.1 ± 20 | 83.3 ± 40 | 77.3 ± 3.9 | 93.7 ± 14 | 116 ± 58 | 91.2 ± 35 | 68.9 ± 12 | 99.1 ± 36 | 103 ± 8.6 |
| Cc1ccccc1-n1c(Cn2cnc3c(N)ncnc32)nc2cccc(C)c2c1=O | 110 ± 2.1 | 133 ± 22 | 102 ± 15 | 113 ± 5.9 | 97.9 ± 27 | 104 ± 18 | 102 ± 12 | 95.6 ± 8.2 | 123 ± 7.7 | 128 ± 20 | 101 ± 9 | 153 ± 48 | 104 ± 11 | 107 ± 12 | 101.8 ± 0.55 | 93.3 ± 7.2 | 112 ± 23 | 98.5 ± 40 | 71.4 ± 14 | 105 ± 6 |
| Cc1cnc(-c2cnc(NCCNc3ccc(C#N)cn3)nc2-c2ccc(Cl)cc2Cl)[nH]1 | 110 ± 4.5 | 103 ± 19 | 73.6 ± 3.6 | 106 ± 22 | 98.4 ± 21 | 89.08 ± 0.19 | 104 ± 2.4 | 126.9 ± 0.6 | 88.2 ± 11 | 92.2 ± 8.4 | 79.9 ± 25 | 72.7 ± 21 | 99.6 ± 12 | 91.2 ± 2.6 | 73.7 ± 18 | 85.9 ± 40 | 104 ± 21 | 85.3 ± 13 | 66.2 ± 15 | 77.1 ± 10 |
| Cc1cnc(Nc2ccc(OCCN3CCCC3)cc2)nc1Nc1cccc(S(=O)(=O)NC(C)(C)C)c1 | 99.9 ± 19 | 92.6 ± 1.8 | 81.3 ± 12 | 42.5 ± 4.4 | 99.1 ± 2.6 | 90.301 ± 0.055 | 68.7 ± 8.1 | 11.7 ± 2.2 | 88.9 ± 26 | 116 ± 5.9 | 64.9 ± 6.9 | 5.85 ± 0.9 | 89 ± 48 | 68.7 ± 15 | 75.4 ± 15 | 16.9 ± 0.89 | 105 ± 22 | 108 ± 2.4 | 71.3 ± 26 | 10.8 ± 5.8 |
